We go through four compounds from the supplement of paper PMC10883282.

The assay relates to A204. Kind of assay: relative viability vs DMSO control (72 h) (fraction); higher = more viable cells. In a few lines: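 Sarcoma cell lines were grown in 384-well plates seeded toward 80–90% confluence and exposed 24 h later to serially diluted compound. After 72 h at 37 °C and 5% CO2, with 0.1% DMSO vehicle and a 5 µM positive control on the plates, ATPLite was read. Relative viability, given as percent growth averaged over up to triplicate wells, was rescaled so that 1 is full and 0 is none.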

Each structure is given as a SMILES string. ± gives the standard deviation of the averaged measurements.

As to `C[C@]1(O)C[C@@H](c2nc(-c3ccc4ccc(-c5ccccc5)nc4c3)c3c(N)nccn32)C1` [Linsitinib], the relative viability was 1.08 ± 0.049 (0.00017 µM); 1.05 ± 0.058 (0.00051 µM); 1.05 ± 0.021 (0.00152 µM); 1.06 ± 0.05 (0.00457 µM); 1.03 ± 0.017 (0.01372 µM); 1.03 ± 0.048 (0.04115 µM). The compound further yielded a relative viability (0.1235 µM) of 1.04 ± 0.087; a relative viability (0.3704 µM) of 0.99 ± 0.077; a relative viability (1.111 µM) of 0.907 ± 0.063; a relative viability (3.333 µM) of 0.755 ± 0.097; a relative viability (10 µM) of 0.476 ± 0.017.

For the compound `C=CC(=O)N1CCC([C@@H]2CCNc3c(C(N)=O)c(-c4ccc(Oc5ccccc5)cc4)nn32)CC1` [Zanubrutinib], the relative viability is, setting by setting: (0.00017 µM) 1.02 ± 0.029; (0.00051 µM) 0.991 ± 0.041; (0.00152 µM) 1 ± 0.046; (0.00457 µM) 1.02 ± 0.033; (0.01372 µM) 1.013 ± 0.0088; (0.04115 µM) 0.969 ± 0.019. Besides, the relative viability turned out to be 1.02 ± 0.049 (0.1235 µM); 0.944 ± 0.084 (0.3704 µM); 0.897 ± 0.071 (1.111 µM); 0.871 ± 0.023 (3.333 µM); 0.764 ± 0.03 (10 µM).

On to `Cn1cc(-c2cc3c(N4CCN(c5ncc([C@@](C)(N)c6ccc(F)cc6)cn5)CC4)ncnn3c2)cn1` [Avapritinib], for which the relative viability (0.00017 µM) was 1.02 ± 0.02; the relative viability (0.00051 µM) amounted to 1.06 ± 0.024; the relative viability (0.00152 µM) turned out to be 1.05 ± 0.023; the relative viability (0.00457 µM) amounted to 1.05 ± 0.063; the relative viability (0.01372 µM) stood at 1.02 ± 0.056; the relative viability (0.04115 µM) was found to be 0.959 ± 0.061. The same compound came in with a relative viability (0.1235 µM) of 0.77 ± 0.019; a relative viability (0.3704 µM) of 0.507 ± 0.013; a relative viability (1.111 µM) of 0.359 ± 0.024; a relative viability (3.333 µM) of 0.282 ± 0.017; a relative viability (10 µM) of 0.212 ± 0.012.

Consider `CC(=O)Nc1cccc(-n2c(=O)n(C3CC3)c(=O)c3c(Nc4ccc(I)cc4F)n(C)c(=O)c(C)c32)c1` [Trametinib], for which the relative viability runs as follows: (0.00017 µM) 1.08 ± 0.084; (0.00051 µM) 1.08 ± 0.05; (0.00152 µM) 1.09 ± 0.034; (0.00457 µM) 1.08 ± 0.035; (0.01372 µM) 1.04 ± 0.047; (0.04115 µM) 0.977 ± 0.06. Besides, the relative viability (0.1235 µM) turned out to be 0.77 ± 0.071; the relative viability (0.3704 µM) amounted to 0.576 ± 0.024; the relative viability (1.111 µM) stood at 0.544 ± 0.022; the relative viability (3.333 µM) is 0.536 ± 0.0082; the relative viability (10 µM) is 0.491 ± 0.015.
